Data set [1] relates to BT12 and G402 cells overexpressing SLC7A11. In words: Lentiviral ORF overexpression, compound sensitivity (CellTiter-Glo, GR). Particulars: 72 hours. The data set is classed as cell-based. As for the experimental part: (§1) Cell lines were taken from viably frozen stocks of the same original provenance as for CTRP and DepMap data, with identity confirmed by SNP-based DNA fingerprinting as described previously (12, 13, 39). Cell lines were propagated using the same media and culture conditions as for CTRPv2.0 experiments. […] For live-cell imaging, cells were plated into clear-bottom plates (Corning) and imaged on an IncuCyte S3 throughout the course of the experiment. For CellTiter-Glo experiments, the initial viability of a subset of plated cells was established at the same time as compound addition using CellTiter-Glo as described previously (24). […] DMSO- and D0-normalized concentration-response curves were generated using four-parameter nonlinear regression using the drc package in R (40). Biphasic curves were also fit and prioritized relative to standard four-parameter curves where appropriate using the BIC (Bayesian information criteria) metric. […] General-purpose optimization (Nelder-Mean algorithm) was used for single-agent fits, and the “model” option was used to predict variance. Overall significance was assessed using the bootstrapped meanR test (n=1000 iterations), and per-concentration significance using maxR, as described by the package authors.
(§2) Infection and selection were carried out according to GPP Viral Infection protocols, followed by cell seeding in 384-well plates for compound treatment or harvesting for Western blotting as described above.
(§3) Parental cell lines were virally transduced with cDNAs that constitutively overexpressed BCL2L1, AIFM2, or MGLL (in G402 and CJM cells); ABCB1 or MGMT (in WM2664 cells); SLC7A11 (in BT12 and G402 cells); MCL1 (in HCC1500 cells); or IRS2 (in T47D cells) and subsequently drug sensitivity was measured. To account for potential differences in growth rates and to distinguish between cytostatic and cytotoxic drug responses, the normalized growth rate inhibition (GR) metric was used to assess cell viability (FIG. 3A) (18).
A general note: Cellular ATP, detected with luciferase, serves as a proxy for viable cell number.

In data set [2] the test system is G402 and CJM cells overexpressing AIFM2. The description is as above. The data set is classed as cell-based. Particulars: 72 hours. The method, then: as §1, §2, §3
In data set [3] the test system is G402, G402-MGLL and KMRC3 cells. In words: Chromatin-modifying compounds and GSK-J4 analogues with MGLL overexpression or JZL184 co-treatment. Particulars: for effect of JZL184 co-treatment on sensitivity: cells expressing MGLL. The data set is classed as cell-based. As for the experimental part:
as §1
To assess whether MGLL could augment sensitivity to other inhibitors of chromatin modifying enzymes, a panel of other small molecules annotated to inhibit chromatin-related processes, targeting other KDM proteins, histone deacetylases (HDACs), and histone methyltransferases (e.g., EZH2, DOT1L) was tested. […] The effects of a number of GSK-J4 analogues (FIG. 7B) were also tested.

The target of another data set is MGLL (Homo sapiens, UniProt Q99685). In words: Recombinant protein/mass spec assay of MGLL-mediated modification. In kind it is biochemical. An excerpt:
The GSK-J4-modifying impact of MGLL is examined further via a recombinant protein/mass spec assay.

The conditions of data set [4]: cited from earlier work.
For data set [5], the system named is HCC1500 cells overexpressing MCL1. In words: Lentiviral ORF overexpression, compound sensitivity (CellTiter-Glo, GR). In kind it is cell-based. Particulars: 72 hours. As for the experimental part: as §1, §2, §3
The test system of a further data set is type IIA topoisomerases. The conditions noted are these: cited from earlier work.
Data set [6] has as its system WM2664 cells overexpressing ABCB1. In words: Lentiviral ORF overexpression, compound sensitivity (CellTiter-Glo, GR). In kind it is cell-based. The conditions noted are these: 72 hours. As for the experimental part:
as §1, §2, §3

Another data set relates to WM2664 cells. In words: CRISPR-Cas9 knockdown of IRS2, response to compound. The data set is classed as cell-based. As for the experimental part:
(§4) Cas9 stably-infected HEC1A, MEWO, SUIT2, and WM2664 cells and sgRNAs (pXPR_BRD003 vector) targeting AIFM2, IRS2, MGLL, or control guides (non-cutting) were acquired from the GPP (FIG. 23). Cell line identities were confirmed to match parental cells using SNP fingerprinting. Virus was generated and infection carried out as described above. After puromycin selection (3 μg/mL for MEWO, 1.5 μg/mL for WM2664, 2 μg/mL for SUIT2 and HEC1A), cells were seeded in 384-well plates for compound treatment or harvested for Western blotting as described above.
(§5) As small-molecule inhibitors were not available for AIFM2 or IRS2, CRISPR-Cas9 was used to knock out these genes in proficient cell lines.

In data set [7] the test system is WM2664 cells overexpressing MGMT. In words: Lentiviral ORF overexpression, compound sensitivity (live-cell imaging, GR). The data set is classed as cell-based. The conditions noted are these: 120 hours. As for the experimental part: Cell lines were taken from viably frozen stocks of the same original provenance as for CTRP and DepMap data, with identity confirmed by SNP-based DNA fingerprinting as described previously (12, 13, 39). Cell lines were propagated using the same media and culture conditions as for CTRPv2.0 experiments. […] For live-cell imaging, cells were plated into clear-bottom plates (Corning) and imaged on an IncuCyte S3 throughout the course of the experiment. For CellTiter-Glo experiments, the initial viability of a subset of plated cells was established at the same time as compound addition using CellTiter-Glo as described previously (24). […] DMSO- and D0-normalized concentration-response curves were generated using four-parameter nonlinear regression using the drc package in R (40). […] Overall significance was assessed using the bootstrapped meanR test (n=1000 iterations), and per-concentration significance using maxR, as described by the package authors. […]
Parental cell lines were virally transduced with cDNAs that constitutively overexpressed BCL2L1, AIFM2, or MGLL (in G402 and CJM cells); ABCB1 or MGMT (in WM2664 cells); SLC7A11 (in BT12 and G402 cells); MCL1 (in HCC1500 cells); or IRS2 (in T47D cells) and subsequently drug sensitivity was measured. […]

The next data set deals with SIMA cell line. In words: KX2-391 response versus ABCB1 expression and activity (elacridar co-treatment). In kind it is cell-based. An excerpt: FIGS. 14A to 14S present supporting data for co-inhibition experiments across additional compounds and cellular models, further to FIG. 3 above. […] FIG. 14R presents dependency data from the DepMap portal (www.depmap.org) for BCL2L1 as a function of BCL2L1 expression (blue to red) and measured sensitivity (GR50) to the BCL2L1 inhibitor WEHI-539. FIG. 14S presents dependency data from the DepMap portal (www.depmap.org) for MCL1 as a function of […] (blue to red) and measured sensitivity (GR50) to the MCL1 inhibitor S63845.
The instant approach can therefore be applied and extended in a number of ways. First, it can be used to identify potential resistance mechanisms that may contribute to relapse in initially responsive settings. Second, it can be used to prioritize combinations for increased initial efficacy if the co-target biomarker is already present, or to de-prioritize single-agent treatment where it is likely to be less efficacious, particularly where alternatives might exist. For example, drug efflux pump expression (e.g., of ABCB1, encoding P-glycoprotein) has been observed as a clinical mechanism of resistance to various chemotherapeutics (30). ABCB1 inhibitors were discontinued from clinical development, largely due to challenges with selectivity and on-target toxicity (31). […]

A further data set concerns MEWO cell line. In words: CRISPR-Cas9 knockout of AIFM2, response to compound. The data set is classed as cell-based. Particulars: four different sgRNAs. As for the experimental part: as §4, §5
The next data set has as its system KDM6 proteins. The conditions noted are these: cited from earlier work.
For data set [8], the system named is cell lines with high expression of the nominated protein. In words: 72-hour co-treatment of index compounds with co-target inhibitors. The data set is classed as cell-based. Particulars: single agent. The method, then:
GAPDH was used as a loading control.
as §1

Another data set deals with 27 cell lines. In words: GSK-J4 with or without JZL184 in 27 cell lines (CellTiter-Glo). The data set is classed as cell-based. Particulars: individual validation experiments or the pooled PRISM assay. As for the experimental part: as §1
Data set [9] has as its target Monoacylglycerol lipase (MAGL) (Mus musculus, UniProt O35678). The conditions noted are these: dose of 16 mg/kg; cited from earlier work.
A further data set relates to 242 cell lines in CTRPv1. Particulars: JZL184 alone; cited from earlier work.

Where two headings read alike, the source gives them in different places.

Sequence of Monoacylglycerol lipase (MAGL) (O35678 whole entry): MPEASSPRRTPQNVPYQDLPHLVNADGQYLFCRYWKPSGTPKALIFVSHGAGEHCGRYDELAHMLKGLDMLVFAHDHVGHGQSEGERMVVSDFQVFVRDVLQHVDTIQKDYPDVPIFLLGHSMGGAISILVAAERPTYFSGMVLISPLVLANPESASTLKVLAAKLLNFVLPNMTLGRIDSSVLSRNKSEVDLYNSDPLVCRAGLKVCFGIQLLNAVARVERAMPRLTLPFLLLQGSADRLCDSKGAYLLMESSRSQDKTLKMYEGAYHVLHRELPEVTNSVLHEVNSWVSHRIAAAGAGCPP
Sequence of MGLL (Q99685 whole entry): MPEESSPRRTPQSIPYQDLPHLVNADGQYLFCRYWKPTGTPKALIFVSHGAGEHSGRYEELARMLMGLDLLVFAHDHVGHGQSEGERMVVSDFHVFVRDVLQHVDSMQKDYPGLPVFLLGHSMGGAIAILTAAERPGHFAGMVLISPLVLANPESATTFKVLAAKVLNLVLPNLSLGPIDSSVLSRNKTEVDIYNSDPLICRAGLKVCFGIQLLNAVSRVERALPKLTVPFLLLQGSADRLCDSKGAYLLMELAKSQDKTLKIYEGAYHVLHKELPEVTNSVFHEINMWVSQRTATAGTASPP

For `CCOc1ccccc1-n1c(C(C)N2CCN(C(=O)COc3ccc(Cl)cc3)CC2)nc2ccccc2c1=O` (stereo not drawn) [erastin], in data set [1], the “resistance (GR50 shift) conferred by SLC7A11 overexpression” value amounted to 30 fold.

On to `O=C1C2CCN(CC2)C1(CO)CO` [PRIMA-1], for which, in data set [1], the “resistance (GR50 shift) conferred by SLC7A11 overexpression” value came to 20 fold. The “resistance (GR50 shift) conferred by AIFM2 overexpression” value in [2] was “approximately threefold”. Consider `OCCCNc1cc(N2CCc3ccccc3CC2)nc(-c2ccccn2)n1` [KDOBA67], for which the “toxicity relative to GSK-J4” value in data set [3] (MGLL-deficient cell lines) was “equivalent toxicity”. Moreover, in data set [3], the “effect of JZL184 co-treatment on sensitivity” value is “could not be further sensitized”. Moreover, the “potency relative to GSK-J4” value in [3] (resistant lines that expressed MGLL either endogenously or ectopically) is listed as “more potent”. For the same molecule, on MGLL, the MGLL-mediated modification entry is “no modification”. Moreover, in data set [4], the cellular permeability entry was “cell-permeable”. As to `CC1(C)CCC(c2ccc(Cl)cc2)=C(CN2CCN(c3ccc(C(=O)NS(=O)(=O)c4ccc(N[C@H](CCN5CCOCC5)CSc5ccccc5)c(S(=O)(=O)C(F)(F)F)c4)cc3)CC2)C1` [navitoclax], the “resistance (GR50 shift) conferred by MCL1 overexpression” value in [5] is given as 100 fold. On to `O=C(O)c1cn(C2CC2)c2cc(N3CCNCC3)c(F)cc2c1=O` [Ciprofloxacin], for which the “targets prokaryotes more than eukaryotic topo IIs” value in the data set with type IIA topoisomerases is recorded as “in excess of a thousandfold”. Regarding `O=C(O)CCNc1cc(N2CCc3ccccc3CC2)nc(-c2ccccn2)n1` [GSK-J1], in data set [3], the “concentrations at which toxicity was shown” value was greater than 20 µM and the “effect of MGLL overexpression or JZL184 co-treatment/inhibition on toxicity” value is listed as “not affected”. Moreover, the cellular permeability entry in data set [4] is listed as “cell-impermeable”.

With `CC[C@@H]1C(=O)N(C)c2cnc(Nc3ccc(C(=O)NC4CCN(C)CC4)cc3OC)nc2N1C1CCCC1` [BI-2536], in data set [6], the “resistance (GR50 shift) conferred by ABCB1 overexpression” value was 40 fold. For the molecule `CC(C)(C)c1cnc(CSc2cnc(NC(=O)C3CCNCC3)s2)o1` [SNS-032], the “resistance (GR50 shift) conferred by ABCB1 overexpression” value in [6] was 25 fold. For the molecule `CS(=O)(=O)N1CCN(Cc2cc3nc(-c4cccc5[nH]ncc45)nc(N4CCOCC4)c3s2)CC1` [pictilisib], the “effect of knockdown of IRS2 on response” value with WM2664 cells was “modest but consistent sensitization”. With `O=NN(CCCl)C(=O)NCCCl` [carmustine], the “resistance (GR50 shift) conferred by MGMT overexpression” value in data set [7] amounted to 4 fold. `CC(=O)O[C@H]1C(=O)[C@@]2(C)[C@H]([C@H](OC(=O)c3ccccc3)[C@]3(O)C[C@H](OC(=O)[C@H](O)[C@@H](NC(=O)c4ccccc4)c4ccccc4)C(C)=C1C3(C)C)[C@]1(OC(C)=O)CO[C@@H]1C[C@@H]2O` [paclitaxel]: the “resistance (GR50 shift) conferred by ABCB1 overexpression” value in data set [6] stood at 50 fold. Regarding `O=C(Cc1ccc(-c2ccc(OCCN3CCOCC3)cc2)cn1)NCc1ccccc1` [KX2-391], in the data set on SIMA cell line, the “relation of response to ABCB1” value is on record as “not correlated with ABCB1 expression or affected by the presence of active ABCB1 protein”.

`CCOC(=O)CCNc1cc(N2CCc3ccccc3CC2)nc(-c2cccnc2)n1` [GSK-J5]: in data set [3], the “effect of MGLL overexpression on toxicity” value is given as “reduced toxicity”, the “potency relative to GSK-J4” value is on record as “much less potent” and the “effect of JZL184 co-treatment on sensitivity” value is “sensitized by JZL184”.

Take `Cc1onc(C(=O)N2CCN(C(c3ccc(Cl)cc3)c3ccc(Cl)cc3)CC2)c1[N+](=O)[O-]` [ML210]: the “resistance (GR50 shift) conferred by SLC7A11 overexpression” value in data set [1] is reported as 8 fold. Moreover, the “resistance (GR50 shift) conferred by AIFM2 overexpression” value in data set [2] is recorded as greater than 500 fold. Further, in the data set with MEWO cell line, the “effect of targeting AIFM2 with sgRNAs on response” value is “sensitization”. `O=C(O)CCNc1cc(N2CCc3ccccc3CC2)nc(-c2cccnc2)n1` [GSK-J2]: in [3], the “effect of MGLL overexpression or JZL184 co-treatment/inhibition on toxicity” value was “not affected”. In addition, the toxicity in data set [3] (at 80 μM) is less than 30%. For the same molecule, the “activity against KDM6” value in the data set on KDM6 proteins was “inactive”. Turning to `CC(C)=CC[C@@H](O)C1=CC(=O)c2c(O)ccc(O)c2C1=O` [shikonin], the “resistance (GR50 shift) conferred by SLC7A11 overexpression” value in data set [1] worked out at 10 fold. As for `O=C(Oc1ccc([N+](=O)[O-])cc1)N1CCC(C(O)(c2ccc3c(c2)OCO3)c2ccc3c(c2)OCO3)CC1` [JZL184, 4-nitrophenyl 4-(dibenzo[d][1,3]dioxol-5-yl(hydroxy)methyl)piperidine-1-carboxylate], the “growth impact of combination partner on its own” value in data set [8] is “only modest growth impact”. The “effects of JZL184 alone” value in the data set on 27 cell lines was “very modest effects”. In addition, in data set [9], the “blockade of MAGL” value is “near-complete blockade”. Also, the dose-dependent toxicity result in the data set on 242 cell lines in CTRPv1 is listed as “did not demonstrate dose-dependent toxicity”.

These data come from patent US20210069230A1, “SYNERGISTIC DRUG COMBINATIONS PREDICTED FROM GENOMIC FEATURES AND SINGLE-AGENT RESPONSE PROFILES” (THE BROAD INSTITUTE, INC., priority 2018, published 2021).
